Entries after “also recorded” stand apart in the source; their conditions may differ.
Columns and labels:
Assay type in all cases: cell-based, human
U87H-GFP [1] = test: Cell cycle analysis (BrdU incorporation / 7-AAD, FACS), reporter line; settings: 5 μM Aza, 2 days
Description: (§1) U87H-GFP and the parent cells were seeded at 5×10^3/cm^2 in T25 flasks (Nuclon, NUNC), using D-MEM without hygromycin B for both cell lines. Half of the flasks were treated with 5 μM Aza and the other, as a negative control, without any medicaments. After 42 h, BrdU was added to the medium (final concentration of 10 μM), and 6 h later the cells were prepared for cell cycle analysis. The cells were harvested, centrifuged at 500×g for 5 min and fixed in chilled 70% strength ethanol for 20 min. BrdU incorporation into the DNA was detected by using 3×10^5 cells of each Aza-treated or untreated cell line. PBS 1×/0.5% BSA (washing buffer) was added, and the cells were centrifuged at 500×g for 5 min. The pellet was then resuspended in a denaturing solution (HCl 1M, PBS 0.5×BSA 0.5%) and washed again after 20 min. This was followed by re-suspending the pellet in 0.1M sodium borate (Na2B4O7), pH 8.5, for 2 min and then adding the washing buffer. After this passage, the total volume of each sample was divided into two halves (one half being used for the isotype antibody, the other one for the BrdU antibody), centrifuged at 500×g for 5 min, resuspended in the buffer containing the anti-isotype or anti-BrdU monoclonal antibodies (Becton Dickinson) and, after 30 min, washed with PBS 1×/0.5% BSA. The supernatant was discarded and the pellet resuspended in RNAse A (final concentration 100 μg/ml); the DNA was stained by also adding to the solution 7-AAD (Via-PROBE, Becton Dickinson). After 1 h (in the dark), the samples were washed and then resuspended in PBS 1×/0.5% BSA. DNA fluorescence of the nuclei (approximately 10^4 nuclei were analyzed for each cell population) was measured by means of the abovementioned FACScan flow cytometer (Becton Dickinson) and the percentages of cells in the G0 and G1, S, G2 and M phases of the cell cycle were analyzed on the basis of the FACScan software programs.

U87 [2] = test: Cell cycle analysis (BrdU incorporation / 7-AAD, FACS), parent line; settings: U87, 5 μM Aza, 2 days
Description: as §1

tumor cells U87 = test: Change in cell morphology (differentiation); settings: high concentrations
U87H-GFP [3] = test: Fluorescence microscopy of H-GFP gene expression; settings: for increase in the green fluorescent signal: 48 h; for upregulation of the CMV promoter, visible due to increased GFP fluorescence: very low concentrations, within two days, after removal of hygromycin
Description: U87H-GFP and the parent cells were seeded at 1-2×10^5 cells/well on 6-well plates (Nuclon, NUNC), using D-MEM without hygromycin B, and incubated for adhesion for 24 h. This was followed by adding 5-azacytidine and trichostatin A (Sigma Chemicals, Co.) at different final concentrations (2.5-5-10-20-40 μM for Aza; from 10 nM to 3 μM for TSA) to the culture medium. After two days of treatment, fluorescence microscopy and flow cytometry analyses were carried out. Approximately 10^5 cells of each cell line were seeded on polylysine-coated coverslips, treated with different concentrations of Aza and TSA for 48 h and then fixed in 5% formaldehyde at room temperature for 30 min. This was followed by analyzing all samples under a fluorescence microscope (Axiophot, Zeiss, Germany) and recording various images which correspond to the different final concentrations of each medicament (FIG. 1).

U87H-GFP [4] = test: Flow cytometry (FACS) of H-GFP fusion gene expression under the hCMV promoter in reporter cell line
U87H-GFP [5] = test: as above; settings: 48 h; for increase in the fluorescence intensity mean value: compared to untreated cells
Description: (§2) U87H-GFP is a cell line derived from the human glioblastoma cell line U87 after stable transfection with plasmid pCMV-hygroEGFP. This plasmid which is integrated into the genomic DNA is derived from PCR-Script™ (Stratagene) and carries a fusion gene downstream of the human CMV promoter. This fusion gene contains the gene for resistance to hygromycin, which is linked to the gene coding for the enhanced green fluorescent protein (EGFP). The resulting gene (called H-GFP) codes for a protein which imparts resistance to hygromycin B and which can be readily detected by fluorescence microscopy and flow cytometry analysis. […] U87H-GFP and the parent line U87 were cultured in Dulbecco's Modified Eagle's Medium, (D-MEM, low glucose, Gibco, BRL) supplemented with 10% fetal calf serum (Seromed), 100 units/ml penicillin, 100 μg/ml streptomycin and 1 μg/ml amphotericine B (Gibco, BRL) at 37° C. in a humidified atmosphere containing 5% CO2. For the U87H-GFP cell line, the culture medium was supplemented with 600 units/ml hygromycin B (Calbiochem). U87H-GFP and the parent cells were seeded at 1-2×10^5 cells/well on 6-well plates (Nuclon, NUNC), using D-MEM without hygromycin B, and incubated for adhesion for 24 h. This was followed by adding 5-azacytidine and trichostatin A (Sigma Chemicals, Co.) at different final concentrations (2.5-5-10-20-40 μM for Aza; from 10 nM to 3 μM for TSA) to the culture medium. After two days of treatment, fluorescence microscopy and flow cytometry analyses were carried out. In order to prepare samples for FACS analysis, cells were incubated in the 6-well plates in 0.05% trypsin containing 0.5 mM EDTA (Gibco, BRL) at 37° C. for 5 min, followed by stopping the trypsin action by adding two volumes of culture medium. The cells were harvested, centrifuged at 500×g for 5 min and resuspended in 1 ml complete D-MEM. In order to stain dead cells, propidium iodide (final concentration 10 μg/ml) was added to each sample. The cells were then again centrifuged and resuspended in phosphate-buffered saline (PBS 1×, pH 7.4), before analyzing them by means of FACS. The cells were analyzed using FACScalibur (Becton Dickinson) with the flow rate corresponding to approximately 500 events/s. In order to exactly define a cell population and to exclude cell debris and aggregates, a region of interest was established on the dot plot (FSC compared to SSC). In the two-parameter histogram of propidium iodide, dead cells were distinguished by comparison to forward angle light scatter (FSC). The fluorescence intensity of individual cells was measured on a logarithmic scale, each logarithmic histogram representing 2×10^4 counted events. The fluorescence intensity mean value (MFI) was the parameter used for defining the increase in the fluorescence intensity in each cell population.

U87 [6] = test: Flow cytometry (FACS) of background fluorescence in parent cell line (negative control line); settings: 48 h, parent cells
Description: as §2, with “In the two-parameter histogram of propidium iodide, dead cells were distinguished by comparison to forward angle light scatter (FSC).” left out

U87H-GFP [7] = test: Toxicity, number of living cells observed by FACS; settings: final TSA concentrations of more than 3 μM (data not shown)
Description: In order to prepare samples for FACS analysis, cells were incubated in the 6-well plates in 0.05% trypsin containing 0.5 mM EDTA (Gibco, BRL) at 37° C. for 5 min, followed by stopping the trypsin action by adding two volumes of culture medium. The cells were harvested, centrifuged at 500×g for 5 min and resuspended in 1 ml complete D-MEM. In order to stain dead cells, propidium iodide (final concentration 10 μg/ml) was added to each sample. The cells were then again centrifuged and resuspended in phosphate-buffered saline (PBS 1×, pH 7.4), before analyzing them by means of FACS.
In order to exactly define a cell population and to exclude cell debris and aggregates, a region of interest was established on the dot plot (FSC compared to SSC). In the two-parameter histogram of propidium iodide, dead cells were distinguished by comparison to forward angle light scatter (FSC). The fluorescence intensity of individual cells was measured on a logarithmic scale, each logarithmic histogram representing 2×10^4 counted events. The fluorescence intensity mean value (MFI) was the parameter used for defining the increase in the fluorescence intensity in each cell population.

[8] = U87H-GFP, listed as Azacytidine

Nc1ncn([C@@H]2O[C@H](CO)[C@@H](O)[C@H]2O)c(=O)n1 [Aza, 5′-azacytidine]
Percentages of cells in G1-G0 (U87H-GFP [1]; U87 H-GFP): 61.53 ± 4.06 %
Percentages of cells in G2 (U87H-GFP [1]; U87 H-GFP): 8.77 ± 1.44%
Percentages of cells in M (U87H-GFP [1]; U87 H-GFP): 16.26 ± 2.83 %
Percentages of cells in S (U87H-GFP [1]; U87 H-GFP): 13.3 ± 3.26 %
change in percentage of cells in G2 versus untreated (U87H-GFP [1]; U87 H-GFP): increased number
effect on different cell cycle phases (apart from G2) (U87H-GFP [1]; U87 H-GFP): no significant differences
change in percentage of cells in G2 versus untreated (U87H-GFP [1]; [8]): small increase
effect on different cell cycle phases (apart from G2) (U87H-GFP [1]; [8]): no significant effect
Percentages of cells in G1-G0 (U87 [2]): 62.61 ± 0.47%
Percentages of cells in G2 (U87 [2]): 13.1 ± 2.36%
Percentages of cells in M (U87 [2]): 10.58 ± 2.85%
Percentages of cells in S (U87 [2]): 13.54 ± 1.25%
changes in the cell cycle phases (U87 [2]): significant changes
change in the morphology of the cells (tumor cells U87): a change in the morphology of the cells was observed
increase in the green fluorescent signal (U87H-GFP [3]; 20 μM Aza): clearly defined
upregulation of the CMV promoter, visible due to increased GFP fluorescence (U87H-GFP [3]): very strong upregulation
shift of FACS fluorescence profile toward higher fluorescence intensity (U87H-GFP [4]; 0.5 μM Aza, 48 h): completely superpose those of the untreated cells
increase in the fluorescence intensity mean value (U87H-GFP [4]; 1 μM Aza alone, 48 h, compared to untreated cells): approximately two-fold; also recorded: about a two-fold
shift in the fluorescence intensity average (U87H-GFP [4]; Aza retained for 144 h, identical final concentrations, versus 48 h experiment (data not shown)): same shift
shift of FACS fluorescence profile toward higher fluorescence intensity (U87H-GFP [5]; 2.5 μM Aza): already clearly visible
increase in the fluorescence intensity mean value (U87H-GFP [5]; 2.5 μM Aza): two-fold
shift of FACS fluorescence profile toward higher fluorescence intensity (U87H-GFP [5]; 20 μM Aza): clearly visible; also recorded: well defined
increase in the fluorescence intensity mean value (U87H-GFP [5]; 20 μM Aza): three-fold
shift of FACS fluorescence profile (U87 [6]; 20 μM Aza): small shift
increase in the fluorescence intensity mean value (U87 [6]; highest concentration used (40 μM Aza)): approximately two-fold; also recorded: less than twice

CC(/C=C/C(=O)NO)=C\[C@@H](C)C(=O)c1ccc(N(C)C)cc1 [TSA, trichostatin A]
toxicity, number of living cells (U87H-GFP [7]): highly toxic
change in the morphology of the cells (tumor cells U87): a change in the morphology of the cells was observed
increase in the green fluorescent signal (U87H-GFP [3]; 1 μM TSA): clearly defined
upregulation of the CMV promoter, visible due to increased GFP fluorescence (U87H-GFP [3]): very strong upregulation
shift of FACS fluorescence profile / increase in H-GFP gene expression (U87H-GFP [5]; 100 nM TSA): completely superpose those of the untreated cells; also recorded: does not induce in any way an increase
increase in the fluorescence intensity mean value (U87H-GFP [5]; 200 nM TSA alone): approximately two-fold; also recorded: about a two-fold
increase in the fluorescence intensity (U87H-GFP [5]; 500 nM TSA): slight but significant increase
shift of FACS fluorescence profile toward higher fluorescence intensity (U87H-GFP [5]; 1 μM TSA): clearly visible; also recorded: attains a saturation threshold
increase in the fluorescence intensity mean value (U87H-GFP [5]; 1 μM TSA): three-fold
increase in the fluorescence intensity mean value (U87H-GFP [5]; 3 μM TSA): four-fold
increase in the fluorescence intensity (U87H-GFP [5]; TSA concentrations lower than 500 nM): not at the lower concentrations used
shift of FACS fluorescence profile (U87 [6]; 1 μM TSA): small shift
increase in fluorescence (U87 [6]; 3 μM TSA): two-fold

— patent US8568972B2, “Substances causing differentiation” (Medicyte GmbH, priority 2000, dated 2013)
